Source: the supplement of paper PMC13207355

Legend:
Conditions in all cases: exposure time: 72 h
[1] = test system: E13 (patient-derived glioblastoma stem cells of classical subtype); assay: surviving fraction (nuclei count normalised to DMSO); higher = more cells surviving (less toxic)
[2] = test system: E21 (patient-derived glioblastoma stem cells of mesenchymal subtype); assay: as above
[3] = test system: E28 (patient-derived glioblastoma stem cells of classical subtype); assay: as above
[4] = test system: E31 (patient-derived glioblastoma stem cells of proneural subtype); assay: as above
[5] = test system: E34 (patient-derived glioblastoma stem cells of proneural subtype); assay: as above
[6] = test system: E57 (patient-derived glioblastoma stem cells of mesenchymal subtype); assay: as above
[7] = test system: FT3469 (normal neural stem cell line); assay: as above
[8] = test system: E13; assay: phenotypic distance (Euclidean, principal components) from DMSO controls (arbitrary units); higher = stronger morphological change
[9] = test system: E21; assay: as above
[10] = test system: E28; assay: as above
[11] = test system: E31; assay: as above
[12] = test system: E34; assay: as above
[13] = test system: E57; assay: as above
[14] = test system: FT3469; assay: as above
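Throughout, for phenotypic distance (Euclidean, principal components) from DMSO controls: cell Painting imaging in 384-well plates, CellProfiler features reduced to at least 20 principal components, Euclidean distance versus same-plate DMSO vehicle wells (0.1% v/v), median over six images per well.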
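Throughout, for surviving fraction (nuclei count normalised to DMSO): nuclei counted by high-content imaging of Hoechst-stained cells in laminin-coated 384-well plates, relative to 0.1% DMSO vehicle wells, with staurosporine as cell-death control.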

CC(C)CC(=O)N[C@H](C(=O)N[C@H](C(=O)N[C@@H](CC(C)C)[C@@H](O)CC(=O)N[C@@H](C)C(=O)N[C@@H](CC(C)C)[C@@H](O)CC(=O)O)C(C)C)C(C)C [Pepstatin A]
Conditions	phenotypic distance	surviving fraction
[1], 4.1 nM	–	1.06
[1], 12.3 nM	–	1.08
[1], 37 nM	–	0.987
[1], 111.1 nM	–	0.969
[1], 333.3 nM	–	0.939
[1], 1000 nM	–	1.07
[1], 3000 nM	–	0.973
[2], 4.1 nM	–	1.08
[2], 12.3 nM	–	1.07
[2], 37 nM	–	1.01
[2], 111.1 nM	–	1.05
[2], 333.3 nM	–	0.985
[2], 1000 nM	–	0.986
[2], 3000 nM	–	0.943
[3], 4.1 nM	–	0.953
[3], 12.3 nM	–	1.07
[3], 37 nM	–	1.14
[3], 111.1 nM	–	1.15
[3], 333.3 nM	–	1.06
[3], 1000 nM	–	0.989
[3], 3000 nM	–	0.92
[4], 4.1 nM	–	0.988
[4], 12.3 nM	–	1.1
[4], 37 nM	–	1
[4], 111.1 nM	–	0.89
[4], 333.3 nM	–	0.936
[4], 1000 nM	–	0.912
[4], 3000 nM	–	0.801
[5], 4.1 nM	–	1.05
[5], 12.3 nM	–	1.18
[5], 37 nM	–	0.988
[5], 111.1 nM	–	1.19
[5], 333.3 nM	–	0.959
[5], 1000 nM	–	1.03
[5], 3000 nM	–	0.906
[6], 4.1 nM	–	1.04
[6], 12.3 nM	–	1.08
[6], 37 nM	–	1.01
[6], 111.1 nM	–	1.02
[6], 333.3 nM	–	1.11
[6], 1000 nM	–	0.978
[6], 3000 nM	–	0.901
[7], 4.1 nM	–	0.981
[7], 12.3 nM	–	1.14
[7], 37 nM	–	1.08
[7], 111.1 nM	–	1.05
[7], 333.3 nM	–	1.07
[7], 1000 nM	–	0.993
[7], 3000 nM	–	1.07
[8], 4.1 nM	3.07	–
[8], 12.3 nM	0.418	–
[8], 37 nM	0.54	–
[8], 111.1 nM	2.55	–
[8], 333.3 nM	0.565	–
[8], 1000 nM	1.06	–
[8], 3000 nM	1.04	–
[9], 4.1 nM	0.741	–
[9], 12.3 nM	0.806	–
[9], 37 nM	0.616	–
[9], 111.1 nM	0.484	–
[9], 333.3 nM	0.724	–
[9], 1000 nM	0.99	–
[9], 3000 nM	0.905	–
[10], 4.1 nM	0.473	–
[10], 12.3 nM	0.719	–
[10], 37 nM	0.825	–
[10], 111.1 nM	1.73	–
[10], 333.3 nM	0.834	–
[10], 1000 nM	1.64	–
[10], 3000 nM	0.785	–
[11], 4.1 nM	0.911	–
[11], 12.3 nM	0.626	–
[11], 37 nM	0.894	–
[11], 111.1 nM	0.552	–
[11], 333.3 nM	0.816	–
[11], 1000 nM	0.799	–
[11], 3000 nM	0.946	–
[12], 4.1 nM	0.998	–
[12], 12.3 nM	1.15	–
[12], 37 nM	0.793	–
[12], 111.1 nM	1.47	–
[12], 333.3 nM	1.37	–
[12], 1000 nM	1.44	–
[12], 3000 nM	0.964	–
[13], 4.1 nM	0.859	–
[13], 12.3 nM	0.774	–
[13], 37 nM	0.554	–
[13], 111.1 nM	0.499	–
[13], 333.3 nM	1.2	–
[13], 1000 nM	1.56	–
[13], 3000 nM	1.57	–
[14], 4.1 nM	0.569	–
[14], 12.3 nM	0.775	–
[14], 37 nM	0.359	–
[14], 111.1 nM	0.585	–
[14], 333.3 nM	0.718	–
[14], 1000 nM	1.15	–
[14], 3000 nM	0.856	–

OCCN1CCN(CCCN2c3ccccc3Sc3ccc(Cl)cc32)CC1 [Perphenazine]
Conditions	phenotypic distance	surviving fraction
[1], 4.1 nM	–	0.93
[1], 12.3 nM	–	0.94
[1], 37 nM	–	0.849
[1], 111.1 nM	–	0.98
[1], 333.3 nM	–	0.964
[1], 1000 nM	–	1.05
[1], 3000 nM	–	0.837
[2], 4.1 nM	–	0.925
[2], 12.3 nM	–	1.06
[2], 37 nM	–	1.03
[2], 111.1 nM	–	1.05
[2], 333.3 nM	–	1.11
[2], 1000 nM	–	0.954
[2], 3000 nM	–	0.73
[3], 4.1 nM	–	1.09
[3], 12.3 nM	–	1.12
[3], 37 nM	–	1.07
[3], 111.1 nM	–	1.19
[3], 333.3 nM	–	0.953
[3], 1000 nM	–	1.09
[3], 3000 nM	–	0.848
[4], 4.1 nM	–	0.97
[4], 12.3 nM	–	1.07
[4], 37 nM	–	1.08
[4], 111.1 nM	–	1.14
[4], 333.3 nM	–	1.18
[4], 1000 nM	–	1.24
[4], 3000 nM	–	0.912
[5], 4.1 nM	–	0.951
[5], 12.3 nM	–	1.05
[5], 37 nM	–	1.1
[5], 111.1 nM	–	1.05
[5], 333.3 nM	–	0.994
[5], 1000 nM	–	1.19
[5], 3000 nM	–	0.986
[6], 4.1 nM	–	0.964
[6], 12.3 nM	–	0.957
[6], 37 nM	–	1
[6], 111.1 nM	–	1.1
[6], 333.3 nM	–	1.15
[6], 1000 nM	–	1.12
[6], 3000 nM	–	1.13
[7], 4.1 nM	–	1.11
[7], 12.3 nM	–	0.955
[7], 37 nM	–	1.01
[7], 111.1 nM	–	1.04
[7], 333.3 nM	–	0.866
[7], 1000 nM	–	0.938
[7], 3000 nM	–	1.03
[8], 4.1 nM	2.64	–
[8], 12.3 nM	2.33	–
[8], 37 nM	3.22	–
[8], 111.1 nM	0.78	–
[8], 333.3 nM	1.14	–
[8], 1000 nM	3.07	–
[8], 3000 nM	3.61	–
[9], 4.1 nM	0.988	–
[9], 12.3 nM	0.761	–
[9], 37 nM	0.693	–
[9], 111.1 nM	1.08	–
[9], 333.3 nM	0.995	–
[9], 1000 nM	0.917	–
[9], 3000 nM	2.66	–
[10], 4.1 nM	0.747	–
[10], 12.3 nM	0.879	–
[10], 37 nM	0.787	–
[10], 111.1 nM	0.725	–
[10], 333.3 nM	0.749	–
[10], 1000 nM	0.938	–
[10], 3000 nM	1.93	–
[11], 4.1 nM	1.23	–
[11], 12.3 nM	0.866	–
[11], 37 nM	0.873	–
[11], 111.1 nM	1.86	–
[11], 333.3 nM	1.75	–
[11], 1000 nM	2.15	–
[11], 3000 nM	3.18	–
[12], 4.1 nM	1.05	–
[12], 12.3 nM	0.866	–
[12], 37 nM	0.902	–
[12], 111.1 nM	2.15	–
[12], 333.3 nM	1.04	–
[12], 1000 nM	1.51	–
[12], 3000 nM	1.42	–
[13], 4.1 nM	1.04	–
[13], 12.3 nM	0.836	–
[13], 37 nM	0.782	–
[13], 111.1 nM	0.979	–
[13], 333.3 nM	0.789	–
[13], 1000 nM	1.66	–
[13], 3000 nM	2.41	–
[14], 4.1 nM	0.72	–
[14], 12.3 nM	0.971	–
[14], 37 nM	0.546	–
[14], 111.1 nM	0.602	–
[14], 333.3 nM	0.84	–
[14], 1000 nM	0.79	–
[14], 3000 nM	1.58	–
